From patent publication US20080275075A1, “Medicine Comprising a Combination of an Acetylcholinesterase Inhibitor and a 5-Substituted-3-Oxadiazolyl-1,6-Naphthyridin-2(1H)-One Derivative” (priority 2004, published 2008)
Counter-ions that a name gives are not always drawn.

Columns and labels:
[1] = test system: spatial memory disorder induced by MK-801; assay: Ameliorating effect on spatial memory disorder induced by MK-801 (Y-maze alternation behavior); format: in vivo, ddY male mice; settings: for [MED (mg/kg)]: minimum effective dose, oral, 1 h before MK-801 0.1 mg/kg s.c., single administration
Protocol: (§1) The pharmacological experiment to investigate ameliorating effect on spatial memory disorder induced by scopolamine was carried out by systemic administration to animals according to the following method of Itoh, T. et al. In addition, the pharmacological experiment to investigate ameliorating effect on spatial memory disorder induced by MK-801 was carried out by systemic administration to animals according to the following method of Maurice, T. et al.
(§2) The spatial memory test using Y-maze apparatus which was selected for the pharmacological experiment is a test to utilize the behavioral property of animals to enter into a new arm, avoiding the arm that they entered into just before (alternation behavior). This method is often used in order to study spatial working memory.
This experiment was carried out according to the method of Maurice, T., et al. [Brain Res., 647, pp. 44-56 (1994)].
Ten to twelve ddY male mice weighing 26-36 g were used per one group in the experiment. A solution of MK-801 in physiological saline (concentration: 0.01 mg/ml) was subcutaneously administered to mice in a volume of 0.1 ml/10 g of body weight, i.e., 0.1 mg/kg. One hour before MK-801 administration, the groups of mice to which each test compound should be singly administered were orally treated with test compound A, test compound B or donepezil suspended in 0.5% tragacanth solution in a volume of 0.1 ml/10 g of body weight; and the animals in the amnesia control group and the vehicle control group orally received a 0.5% tragacanth solution in a volume of 0.1 ml/10 g of body weight. However, the vehicle control group was injected with physiological saline instead of MK-801. Twenty minutes after administration of MK-801, the mice were placed at the end of the arm A of the Y-maze apparatus which was composed of three black acrylic trapezoid arms (bottom width: 3 cm, height of side wall: 12 cm, width of opened ceiling: 10 cm, length: 40 cm), wherein said three arms were connected at the one end of each arm to form Y-shape and another ends were closed, and the three arms were differentiated by the names as A, B and C respectively, and allowed to search freely the maze for 8 minutes. When the mouse was checked to enter into an arm at the length of not less than 10 cm from the entrance of the arm, the name of the arm (A, B or C) was recorded. For the final data gotten, the ratio of the number of the alternation behavior to that of the entries (obtained by subtracting 2 from the total number of arm entries) was estimated as the rate of alternation behavior.
In statistical analysis, the rate of alternation behavior in the amnesia control group was compared with that in the vehicle control group by the Wilcoxon rank sum test and it was checked if a significant amnesia was induced in the amnesia control group. Next, the efficacy of the test compounds was evaluated in comparison between the amnesia control group and each group of test compound A, test compound B or donepezil by the nonparametric Dunnett multiple comparison test. The statistical calculation was carried out with SAS® System (Release 8.02, SAS Institute Inc.) and Preclinical Package Version 5.0 (SAS Institute Japan Ltd.).

[2] = test system: spatial memory disorder induced by scopolamine; assay: Ameliorating effect on spatial memory disorder induced by scopolamine (Y-maze alternation behavior); format: in vivo, ddY male mice; settings: for Single administration [MED (mg/kg)]: minimum effective dose, 1 h before scopolamine 0.6 mg/kg s.c.; for Single administration [MED (mg/kg)] / # [MED (mg/kg)] Combined administration with donepezil: oral; for dose at which spatial memory disorder induced by scopolamine was significantly ameliorated: single oral administration; for # [MED (mg/kg)] Combined administration with donepezil: minimum effective dose of test compound, combined with donepezil 1 mg/kg
Protocol: as §1, §2
This experiment was carried out according to the method of Itoh, J., et al. [Eur. J. Pharmacol., 236, pp. 341-345 (1993)].
Ten to twelve ddY male mice weighing 28-34 g were used per one group in the experiment. A solution of scopolamine in physiological saline (concentration: 0.06 mg/ml) was subcutaneously administered to mice in a volume of 0.1 ml/10 g of body weight, i.e., 0.6 mg/kg. […] However, the vehicle control group was injected with physiological saline instead of scopolamine. Thirty minutes after the administration of scopolamine, the mice were placed at the end of the arm A of the Y-maze apparatus which was composed of three black acrylic trapezoid arms (bottom width: 3 cm, height of side wall: 12 cm, width of opened ceiling: 10 cm, length: 40 cm), wherein said three arms were connected at the one end of each arm to form Y-shape and another ends were closed, and the three arms were differentiated by the names as A, B and C respectively, and allowed to search freely the maze for 8 minutes. When the mouse was checked to enter into an arm at the length of not less than 10 cm from the entrance of the arm, the name of the arm (A, B or C) was recorded. For the final data gotten, the ratio of the number of the alternation behavior to that of the entries (obtained by subtracting 2 from the total number of arm entries) was estimated as the rate of alternation behavior.
In statistical analysis, the rate of alternation behavior in the amnesia control group was compared with that in the vehicle control group by the Wilcoxon rank sum test and it was checked if a significant amnesia was induced in the amnesia control group. Next, the efficacy of the test compounds in single use or in combination use of the test compounds with donepezil was evaluated in comparison between the amnesia control group and the single-administration groups using each one of the test compound A, the test compound B or donepezil; or in comparison between the amnesia control group and the combination groups of the test compound A or B and donepezil, by the nonparametric Dunnett multiple comparison test. The statistical calculation was carried out with SAS® System (Release 8.02, SAS Institute Inc.) and Preclinical Package Version 5.0 (SAS Institute Japan Ltd.).

| SMILES | [MED (mg/kg)] [1] [mg/kg] | amelioration of spatial memory disorder induced by MK-801 ([1]; single oral administration) | amelioration of spatial memory disorder induced by scopolamine ([2]; 1 mg/kg, single administration) | Single administration [MED (mg/kg)] ([2]; single administration) [mg/kg] | dose at which spatial memory disorder induced by scopolamine was significantly ameliorated [2] [mg/kg] | rate of alternation behavior ([1]; amnesia control group, MK-801 0.1 mg/kg s.c., vehicle control group 65-73%) | dose at which spatial memory disorder induced by MK-801 was significantly ameliorated ([1]; single oral administration) [mg/kg] | # [MED (mg/kg)] Combined administration with donepezil ([2]; scopolamine 0.6 mg/kg s.c.) [mg/kg] | rate of alternation behavior ([2]; amnesia control group, scopolamine 0.6 mg/kg s.c., vehicle control group 63-70%) |
| --- | --- | --- | --- | --- | --- | --- | --- | --- | --- |
| COc1cc2c(cc1OC)C(=O)C(CC1CCN(Cc3ccccc3)CC1)C2 (centres unmarked) [Donepezil, Donepezil hydrochloride, reference compound] | >15 | not ameliorated | not ameliorated | 10 | ≥ 10 |  |  |  |  |
| C[C@]12N[C@H](Cc3ccccc31)c1ccccc12 [MK-801, dizocilipine maleate, reference compound] |  |  |  |  |  | 45-47% |  |  |  |
| COc1cccc(-c2nccc3[nH]c(=O)c(-c4noc(C)n4)cc23)c1 [Test compound A, 3-(5-methyl-1,2,4-oxadiazol-3-yl)-5-(3-methoxyphenyl)-1,6-naphthyridin-2(1H)-one] | 0.3 |  |  | 0.3 | ≥ 0.3 |  | ≥ 0.3 | 0.03 |  |
| O=c1[nH]c2ccnc(-c3ccsc3)c2cc1-c1nc(C2CC2)no1 [Test compound B, 3-(3-cyclopropyl-1,2,4-oxadiazol-5-yl)-5-(3-thienyl)-1,6-naphthyridin-2(1H)-one] | 0.1 |  |  | 0.1 | ≥ 0.1 |  | ≥ 0.1 | 0.01 |  |
| CN1[C@@H]2C[C@@H](OC(=O)[C@H](CO)c3ccccc3)C[C@H]1[C@@H]1O[C@@H]12 [scopolamine, Scopolamine hydrobromide, reference compound] |  |  |  |  |  |  |  |  | 39-46% |
